Assays:
[1] = test system: H1 human embryonic stem cells; test: Single-cell monolayer assay with EGF/FGF4, serum free, no activin A (Example 10, Table 10); format: cell-based; conditions: No AA (without Wnt3a); FGF(100 ng/ml); EGF(100 ng/ml)
scid-beige mice = test: Transplantation of differentiated cells under the kidney capsule, human C-peptide ELISA (Example 18); format: in vivo, mouse; conditions: 8-weeks post-transplant; cells treated in step 1 as named (compounds with GDF-8)
Experimental: Five to six-week-old male scid-beige mice (C.B-Igh-1 b1 GbmsTac-Prkdc^scid-Lyst^bgN7) were purchased from Taconic Farms. Mice were housed in microisolator cages with free access to sterilized food and water. In preparation for surgery, mice were identified by ear tagging, their body weight was measured, and their blood glucose was determined using a hand held glucometer (LifeScan; One Touch). On the day of surgery, mice were anesthetized with a mixture of isolflurane and oxygen, and the surgical site was shaved with small animal clippers. Mice were dosed with 0.1 mg·kg Buprenex subcutaneously pre-operatively. The surgical site was prepared with successive washes of 70% isopropyl alcohol, 10% povidone-iodide, and 70% isopropyl alcohol, and a left lateral incision was made through the skin and muscle layers. […]
Following transplantation, mice were weighed once per week and blood glucose was measured twice per week. […] Human C-peptide levels were determined using the Mercodia/ALPCO Diagnotics Ultrasensitive C-peptide ELISA according to the manufacturer's instructions.
ELISA results for human C-peptide are shown in FIG. 23 for mice transplanted with cells from each of the respective treatment groups. No circulating human C-peptide was detected at four weeks post-transplant for any mice receiving cells from any of the treatment groups.

[2] = test system: H1 human embryonic stem cells; test: Step-wise differentiation, high content analysis of SOX17, PDX1, CDX2, insulin, glucagon (Example 12); format: cell-based
Experimental: The assay was initiated by aspirating the culture medium from each well and adding back an aliquot (0.5 ml) of test medium. Test conditions for the first step of differentiation were conducted over a three-day period, feeding daily by aspirating and replacing the medium from each well with fresh test medium. On the first day of assay, 100 ng/ml activin A (PeproTech; Cat #120-14) or 200 ng/ml GDF-8 (R&D Systems, Cat #788-G8) was added to respective assay wells where each growth factor was diluted into RPMI-1640 medium (Invitrogen; Cat #22400) with 1% Albumin Bovine Fraction V, Fatty Acid Free (FAF BSA) (MP Biomedicals, Inc; Cat 152401), 1% Probumin (Millipore; Cat #81-068-3) and 20 ng/ml Wnt3a (R&D Systems; Cat #1324-WN/CF). On the second day of assay, 100 ng/ml activin A or 200 ng/ml GDF-8 was diluted into RPMI-1640 medium supplemented with 2% FAF BSA without Wnt3a. In some test samples using GDF-8, Wnt3a was replaced with a either Compound 34 or Compound 56 at a concentration of 2.5 μM, and either Compound 34 or Compound 56 was added daily during all three days of definitive endoderm differentiation. At the conclusion of the first step of differentiation, cells from some wells were harvested for flow cytometry analysis to evaluate levels of CXCR4, a marker of definitive endoderm formation. […]

O=C1CCN2CCN(CC2)Cc2cc(Cl)cc(c2)Nc2ncnc(n2)-c2cncc(c2)CCCN1 [Compound 34, 5-Chloro-1,8,10,12,16,22,26,32-octaazapentacyclo[24.2.2.1˜3.7˜0.1˜9,13˜0.1˜14.18˜]tritriaconta-3(33), 4,6,9(32), 10,12,14(31), 15,17-nonaen-23-one]
Sox17 Expression, Average Total Intensity [1]: 1.13E+08

C=CCN1CC(=O)NCCCc2cncc(c2)-c2ncnc(n2)Nc2cccc(c2)C1 [Compound 40, 14-Prop-2-en-1-yl-3,5,7,14,17,23,27-heptaazatetracyclo[19.3.1.1˜2.6˜0.1˜8,12˜]heptacosa-1(25), 2(27), 3,5,8(26), 9,11,21,23-nonaen-16-one]
mice with detectable C-peptide (scid-beige mice): one of three mice

GDF-8: growth factor GDF-8, also known as myostatin, member of the TGF-β family
normalized protein levels of insulin and glucagon after step 5 ([2]; GDF-8 versus activin A treatment groups in step 1): equivalent expression between the Activin A and GDF-8 treatment groups | normalized Pdx1 and Cdx2 protein expression after step 3 ([2]; GDF-8 with Wnt3a or with a compound in step 1): equivalent levels of PDX1 and CDX2
